According to patent US11279691B2, “Substituted pyridine and pyrazine compounds as PDE4 inhibitors” (Dart Neuroscience LLC, priority 2013, dated 2022):

molecular target: T1, PDE4D3 (Homo sapiens, UniProt Q08499); type: biochemical; conditions: GST-tagged PDE4D3, 200 nM FAM-cAMP, 11-point dose-response; read-out: PD4d3 pEC50 (converted)
T1 construct: GST
T1 sequence (Q08499 1-673 isoform Q08499-2): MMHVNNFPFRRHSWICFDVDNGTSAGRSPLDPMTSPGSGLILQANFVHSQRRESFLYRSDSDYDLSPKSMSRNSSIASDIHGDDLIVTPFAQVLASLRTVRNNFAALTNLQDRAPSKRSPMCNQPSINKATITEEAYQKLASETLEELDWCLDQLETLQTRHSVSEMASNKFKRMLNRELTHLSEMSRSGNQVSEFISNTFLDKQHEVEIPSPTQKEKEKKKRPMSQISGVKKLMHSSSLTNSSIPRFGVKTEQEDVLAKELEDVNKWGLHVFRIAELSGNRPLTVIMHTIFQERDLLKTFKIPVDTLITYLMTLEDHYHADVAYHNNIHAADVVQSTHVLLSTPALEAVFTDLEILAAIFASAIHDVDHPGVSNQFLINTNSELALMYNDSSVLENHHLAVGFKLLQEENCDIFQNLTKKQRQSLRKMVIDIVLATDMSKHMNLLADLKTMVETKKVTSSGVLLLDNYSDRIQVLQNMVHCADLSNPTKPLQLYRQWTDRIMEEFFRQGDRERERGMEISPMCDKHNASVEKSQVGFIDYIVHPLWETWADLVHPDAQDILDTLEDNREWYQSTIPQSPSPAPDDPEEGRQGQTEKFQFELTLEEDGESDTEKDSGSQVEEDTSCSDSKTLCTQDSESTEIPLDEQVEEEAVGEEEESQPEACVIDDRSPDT

`N#CCc1ncc(Cc2cnc(OCC(F)F)c(-c3cccc(Cl)c3)c2)cn1` [Example 348, 2-(5-{[5-(3-Chlorophenyl)-6-(2,2-difluoroethoxy)pyridin-3-yl]methyl}pyrimidin-2-yl)acetonitrile] and `COc1ncc(Cc2cnc(CC#N)nc2)cc1-c1ccc(F)c(F)c1` [Example 358, 2-(5-{[5-(3,4-Difluorophenyl)-6-methoxypyridin-3-yl]methyl}pyrimidin-2-yl)acetonitrile] cannot be ordered by EC50: under 100 nM for the first, under 100 nM for the second.

First: COc1cc(-c2cc(Cn3cnc(N)n3)cnc2OC)ccc1F [Example 407, 1-{[5-(4-Fluoro-3-methoxyphenyl)-6-methoxypyridin-3-yl]methyl}-1H-1,2,4-triazol-3-amine]
Second: COc1ncc(Cc2cnc(N)nc2)cc1-c1ccc(F)c(F)c1 [Example 362, 5-{[5-(3,4-Difluorophenyl)-6-methoxypyridin-3-yl]methyl}pyrimidin-2-amine]
The EC50 of the first is higher: 1000 to 10000 nM for the first, under 100 nM for the second.

First: CCOc1ncc(Cn2nc(CO)cc2C)nc1-c1cccc(Cl)c1 [Example 323, (1-{[6-(3-Chlorophenyl)-5-ethoxypyrazin-2-yl]methyl}-5-methyl-1H-pyrazol-3-yl)methanol]
Second: CCOc1ncc(Cn2nc(CO)cc2C)cc1-c1cccc(Cl)c1 [Example 325, (1-{[5-(3-Chlorophenyl)-6-ethoxypyridin-3-yl]methyl}-5-methyl-1H-pyrazol-3-yl)methanol]
The EC50 of the first is higher: 1000 to 10000 nM for the first, under 100 nM for the second.

Compared with `CCOc1ncc(Cn2cnc(CO)n2)cc1-c1ccc(F)c(F)c1` [Example 340, (1-{[5-(3,4-Difluorophenyl)-6-ethoxypyridin-3-yl]methyl}-1H-1,2,4-triazol-3-yl)methanol], `CCOc1ncc(Cn2cnc(CO)n2)cc1-c1ccc(Cl)c(Cl)c1` [Example 330, (1-{[5-(3,4-Dichlorophenyl)-6-ethoxypyridin-3-yl]methyl}-1H-1,2,4-triazol-3-yl)methanol] is higher in EC50: under 100 nM for the first, 100 to 1000 nM for the second.

First: COc1ncc(Cn2ccc(C(N)=O)n2)cc1-c1ccnc(OC(F)F)c1 [Example 309, 1-({5-[2-(Difluoromethoxy)pyridin-4-yl]-6-methoxypyridin-3-yl}methyl)-1H-pyrazole-3-carboxamide]
Second: COc1ncc(Cn2nc(CO)cc2C)cc1-c1ccnc(OC(F)F)c1 [Example 316, [1-({5-[2-(Difluoromethoxy)pyridin-4-yl]-6-methoxypyridin-3-yl}methyl)-5-methyl-1H-pyrazol-3-yl]methanol]
The EC50 of the first is lower: under 100 nM for the first, 100 to 1000 nM for the second.

`COc1ncc(Cc2cnc(C(N)=O)nc2)cc1-c1ccc(F)c(F)c1` [Example 373, 5-{[5-(3,4-Difluorophenyl)-6-methoxypyridin-3-yl]methyl}pyrimidine-2-carboxamide] and `COc1ncc(Cc2cnc(C(N)=O)nc2)cc1-c1ccc(F)c(Cl)c1` [Example 282, 5-{[5-(3-Chloro-4-fluorophenyl)-6-methoxypyridin-3-yl]methyl}pyrimidine-2-carboxamide] fall in the same range of EC50: 100 to 1000 nM for the first, 100 to 1000 nM for the second.

`CCOC(=O)Cc1ccc(Cc2cnc(OC)c(-c3ccc(F)c(F)c3)c2)cc1` [Intermediate 49, Ethyl 2-(4-{[5-(3,4-difluorophenyl)-6-methoxypyridin-3-yl]methyl}phenyl)acetate] and `COc1ncc(Cc2ccc(CC(N)=O)cc2)cc1-c1ccc(F)c(F)c1` [Example 363, 2-(4-{[5-(3,4-Difluorophenyl)-6-methoxypyridin-3-yl]methyl}phenyl)acetamide] cannot be ordered by EC50: under 100 nM for the first, under 100 nM for the second.

Compared with `CCOc1ncc(Cc2cnc(N)nc2)cc1-c1ccc(F)cc1` [Example 350, 5-{[6-Ethoxy-5-(4-fluorophenyl)pyridin-3-yl]methyl}pyrimidin-2-amine], `CCOc1ncc(Cc2cnc(N)nc2)cc1-c1ccc(Cl)cc1` [Example 351, 5-{[5-(4-Chlorophenyl)-6-ethoxypyridin-3-yl]methyl}pyrimidin-2-amine] is higher in EC50: under 100 nM for the first, 100 to 1000 nM for the second.

`CCOc1ncc(Cc2cnc(N)nc2)cc1-c1ccc(F)c(F)c1` [Example 353, 5-{[5-(3,4-Difluorophenyl)-6-ethoxypyridin-3-yl]methyl}pyrimidin-2-amine] and `CCOc1ncc(Cc2cnc(N)nc2)cc1-c1ccc(F)c(Cl)c1` [Example 279, 5-((5-(3-Chloro-4-fluorophenyl)-6-ethoxypyridin-3-yl)methyl)pyrimidin-2-amine] cannot be ordered by EC50: under 100 nM for the first, under 100 nM for the second.

Compared with `OCc1ncn(Cc2cnc(OCC(F)(F)F)c(-c3cccc(Cl)c3)c2)n1` [Example 300, (1-((5-(3-Chlorophenyl)-6-(2,2,2-trifluoroethoxy)pyridin-3-yl)methyl)-1H-1,2,4-triazol-3-yl)methanol], `CCOc1ncc(Cn2cnc(CO)n2)cc1-c1cccc(C(F)(F)F)c1` [Example 332, [1-({6-Ethoxy-5-[3-(trifluoromethyl)phenyl]pyridin-3-yl}methyl)-1H-1,2,4-triazol-3-yl]methanol] is higher in EC50: 100 to 1000 nM for the first, 1000 to 10000 nM for the second.

Going from `CCOc1ncc(Cn2cnc(CO)n2)cc1-c1ccccc1F` [Example 277, (1-((6-Ethoxy-5-(2-fluorophenyl)pyridin-3-yl)methyl)-1H-1,2,4-triazol-3-yl)methanol] to `CCOc1ncc(Cn2cnc(CO)n2)cc1-c1cccc(OC)c1` [Example 327, (1-{[6-Ethoxy-5-(3-methoxyphenyl)pyridin-3-yl]methyl}-1H-1,2,4-triazol-3-yl)methanol], the EC50 falls from over 10000 nM to under 100 nM.

First: COc1ncc(Cc2cnc(OC(F)F)nc2)cc1-c1cccc(Cl)c1 [Example 304, 5-((5-(3-Chlorophenyl)-6-methoxypyridin-3-yl)methyl)-2-(difluoromethoxy)pyrimidine]
Second: COc1ncc(Cc2cnc(N)cn2)cc1-c1cccc(Cl)c1 [Example 287, 5-((5-(3-Chlorophenyl)-6-methoxypyridin-3-yl)methyl)pyrazin-2-amine]
The EC50 of the first is higher: 100 to 1000 nM for the first, under 100 nM for the second.

Compared with `CCOc1ccc(Cc2cnc(OC)c(-c3cccc(Cl)c3)c2)nc1` [Example 286, 3-(3-Chlorophenyl)-5((5-ethoxypyridin-2-yl)methyl)-2-methoxy pyridine], `COc1ncc(Cc2cnnc(C)c2)cc1-c1cccc(Cl)c1` [Example 305, 5-{[5-(3-Chlorophenyl)-6-methoxypyridin-3-yl]methyl}-3-methylpyridazine] is lower in EC50: over 10000 nM for the first, 100 to 1000 nM for the second.

`CCOc1ncc(Cn2nnnc2C)cc1-c1ccc(F)c(Cl)c1` [Example 398, 3-(3-Chloro-4-fluorophenyl)-2-ethoxy-5-[(5-methyl-1H-1,2,3,4-tetrazol-1-yl)methyl]pyridine] and `CCOc1ncc(Cn2nnnc2C)cc1-c1ccc(F)cc1` [Example 296, 2-Ethoxy-3-(4-fluorophenyl)-5-((5-methyl-1H-tetrazol-1-yl)methyl)pyridine] cannot be ordered by EC50: under 100 nM for the first, under 100 nM for the second.

`CCOc1ncc(Cc2cnc(NCCO)nc2)nc1-c1ccc(F)c(F)c1` [Example 294, 2-((5-((6-(3,4-difluorophenyl)-5-ethoxypyrazin-2-yl)methyl)pyrimidin-2-yl)amino)ethanol] and `COc1ncc(Cc2cnc(NCCO)nc2)cc1-c1ccc(F)c(F)c1` [Example 375, 2-[(5-{[5-(3,4-Difluorophenyl)-6-methoxypyridin-3-yl]methyl}pyrimidin-2-yl)amino]ethan-1-ol] cannot be ordered by EC50: under 100 nM for the first, under 100 nM for the second.

`COc1ncc(Cc2cnc(N)nc2)cc1-c1ccc(F)c(Cl)c1` [Example 359, 5-{[5-(3-Chloro-4-fluorophenyl)-6-methoxypyridin-3-yl]methyl}pyrimidin-2-amine] and `COc1ncc(Cc2cnc(CC(N)=O)nc2)cc1-c1ccc(F)cc1` [Example 281, 2-(5-{[5-(4-Fluorophenyl)-6-methoxypyridin-3-yl]methyl}pyrimidin-2-yl)acetamide] cannot be ordered by EC50: under 100 nM for the first, under 100 nM for the second.

`CCOc1ncc(Cn2ccc(C(N)=O)n2)nc1-c1cccc(Cl)c1` [Example 313, 1-{[6-(3-Chlorophenyl)-5-ethoxypyrazin-2-yl]methyl}-1H-pyrazole-3-carboxamide] and `CCOc1ncc(Cn2cnc(C(N)=O)c2)nc1-c1ccc(F)c(F)c1` [Example 314, 1-{[6-(3,4-Difluorophenyl)-5-ethoxypyrazin-2-yl]methyl}-1H-imidazole-4-carboxamide] fall in the same range of EC50: 100 to 1000 nM for the first, 100 to 1000 nM for the second.

Compared with `COc1ncc(Cc2cnc(N3CC(O)C3)nc2)cc1-c1cccc(Cl)c1` [Example 390, 1-(5-{[5-(3-Chlorophenyl)-6-methoxypyridin-3-yl]methyl}pyrimidin-2-yl)azetidin-3-ol], `COc1ncc(Cn2nnnc2C)cc1-c1cccc(Cl)c1` [Example 380, 3-(3-Chlorophenyl)-2-methoxy-5-[(5-methyl-1H-1,2,3,4-tetrazol-1-yl)methyl]pyridine] is lower in EC50: 100 to 1000 nM for the first, under 100 nM for the second.

Compared with `CCOc1ncc(Cn2cc(C(F)F)nc2C)nc1-c1cccc(Cl)c1` [Example 403, 3-(3-Chlorophenyl)-5-{[4-(difluoromethyl)-2-methyl-1H-imidazol-1-yl]methyl}-2-ethoxypyrazine], `Cc1nc(CO)cn1Cc1cnc(OCC(F)F)c(-c2cccc(Cl)c2)c1` [Example 406, (1-{[5-(3-Chlorophenyl)-6-(2,2-difluoroethoxy)pyridin-3-yl]methyl}-2-methyl-1H-imidazol-4-yl)methanol] is lower in EC50: 100 to 1000 nM for the first, under 100 nM for the second.

`CCOc1cccc(-c2cc(Cn3cnc(CO)n3)cnc2OCC)c1` [Example 334, (1-{[6-Ethoxy-5-(3-ethoxyphenyl)pyridin-3-yl]methyl}-1H-1,2,4-triazol-3-yl)methanol] and `CCOc1cc(-c2cc(Cn3nnnc3C)cnc2OCC)ccn1` [Example 400, 2-Ethoxy-3-(2-ethoxypyridin-4-yl)-5-[(5-methyl-1H-1,2,3,4-tetrazol-1-yl)methyl]pyridine] fall in the same range of EC50: 100 to 1000 nM for the first, 100 to 1000 nM for the second.

`CCOc1ncc(Cn2nnc(C)n2)cc1-c1ccnc(OC(F)F)c1` [Example 394, 3-[2-(Difluoromethoxy)pyridin-4-yl]-2-ethoxy-5-[(5-methyl-2H-1,2,3,4-tetrazol-2-yl)methyl]pyridine] and `CCOc1ncc(Cc2cncc(F)c2)cc1-c1ccnc(OC(F)F)c1` [Example 306, 3-[2-(Difluoromethoxy)pyridin-4-yl]-2-ethoxy-5-[(5-fluoropyridin-3-yl)methyl]pyridine] cannot be ordered by EC50: under 100 nM for the first, under 100 nM for the second.

In the case of `COc1ncc(Cn2nnnc2CO)cc1-c1ccc(F)cc1` [Example 382, (1-{[5-(4-Fluorophenyl)-6-methoxypyridin-3-yl]methyl}-1H-1,2,3,4-tetrazol-5-yl)methanol], the EC50 is reported as 1000 to 10000 nM.
